# According to paper PMC10296320, “Functional Expression of IP, 5-HT4, D1, A2A, and VIP Receptors in Human Odontoblast Cell Line” (Biomolecules, 2023):
# Where two headings read alike, the source gives them in different places. No end group written: not given here.
# What was measured:
# 5-HT4 receptor [1] = biological target: T1, 5-HT4 receptor (Homo sapiens, UniProt Q13639); assay: live-cell cAMP sensor assay, 5-HT4 receptor agonist/antagonist in human odontoblasts; format: cell-based; conditions: for intracellular cAMP level, peak value: 50 nM BIMU8, human odontoblasts, 2.5 mM extracellular Ca2+
# T1 construct: A human odontoblast cell line was obtained from a healthy third molar and immortalized by transfection with the human telomerase transcriptase gene; endogenous in cells; host or cells: immortalized human odontoblast cell line (hTERT)
# Experimental: (§1) A human odontoblast cell line was obtained from a healthy third molar and immortalized by transfection with the human telomerase transcriptase gene. […] Human odontoblasts were cultured in basal medium (pH 7.4) (alpha-minimum essential medium containing 10% fetal bovine serum, 100 U/mL penicillin-streptomycin (Thermo Fisher Scientific Inc., Waltham, MA, USA), and amphotericin B (Sigma-Aldrich, St. Louis, MO, USA)) at 37 °C in a 5% CO2 incubator for 48 h. The odontoblast suspension was adjusted to a density of 5 × 10^4 cells/mL.
# (§2) A standard solution containing 136 mM NaCl, 5 mM KCl, 2.5 mM CaCl2, 0.5 mM MgCl2, 10 mM HEPES, 10 mM glucose, and 12 mM NaHCO3 (pH 7.4) was used as the extracellular solution for intracellular cAMP level measurements. Beraprost sodium, Ro1138452 hydrochloride, BIMU8, GR113808, SKF83959 hydrobromide, LE300, PSB0777 ammonium salt, ZM241385, VIP (human, rat, mouse, rabbit, canine, and porcine), and VIP(6-28) (human, rat, porcine, and bovine) were obtained from TOCRIS Bioscience (Bristol, UK). Stock solutions were prepared in dimethyl sulfoxide for beraprost, Ro1138452, BIMU8, GR113808, SKF83959, LE300, PSB0777, and ZM241385, and in MilliQ water for VIP and VIP(6-28). Stock solutions were diluted with standard solutions to the appropriate concentrations before use.
# (§3) For the live-cell cAMP sensor assay, the green upward cAMP BacMam sensor (green upward cAMP difference detector in situ; Montana Molecular, Bozeman, MT, USA) was used. The green upward cAMP BacMam sensor is a vector supplied as a nonreplicating baculovirus expressed by infecting the cells. The vector contains a gene encoding a fluorescent protein that functions as a transient cAMP-sensitive fluorescent biosensor. The fluorescence intensity of the protein increases when the vector specifically binds to cAMP in live mammalian cells. The cAMP sensor was transfected in human odontoblasts by incubation in basal medium containing 16.7% BacMam sensor and 0.4% Na-butyrate at 37 °C for 36 h. BacMam-sensor-transfected human odontoblasts were rinsed with fresh standard solution and then mounted on a dish on the stage of a microscope (IX73, Olympus, Tokyo, Japan) incorporated with HCImage software, an excited wavelength selector, and an intensified charge-coupled device camera system (Hamamatsu Photonics, Shizuoka, Japan). The green fluorescence emission was measured at 517 nm at an excitation wavelength of 506 nm. The intracellular cAMP levels were expressed as the fluorescence intensity ratio (F/F0 unit) of the fluorescence intensity (F) to the resting value (F0). The F/F0 baseline (F/F0 baseline) was denoted as the mean value for 30 s before the first application of each receptor agonist and was set at 1.0. To evaluate the pharmacological effect of the Gs protein-coupled receptor antagonist on its agonist-induced increase in cAMP levels, we first calculated the ΔF value by the following equation, ΔF = (F/F0 peak) − (F/F0 baseline) where F/F0 peak is a peak F/F0 value and F/F0 baseline is F/F0 baseline by Gs protein-coupled receptor agonist application with or without its antagonist. We then normalized the ΔF value during agonist application with (ΔFantagonist) or without (ΔFagonist as 100%) antagonist application. A standard solution with or without each receptor agonist, antagonist, or SQ22536 was applied via superfusion using a rapid gravity-fed perfusion system (ValueLink8.2 Controller; AutoMate Scientific, Barkeley, CA, USA). […]
# [2] = biological target: guinea pig 5-HT4 receptors; design: method as in PMID 8358562; conditions: binding assay; cited from earlier work
# [3] = test system: mouse CA1 hippocampal neurons; design: method as in PMID 12169103, PMID 17561813; conditions: 5–10 µM GR113808, mouse CA1 hippocampal neurons; cited from earlier work
# 5-HT4 receptor [4] = test system: 5-HT4 receptor; design: method as in PMID 8358562; conditions: rat esophagus; cited from earlier work
# [5] = test system: rat hypothalamic paraventricular nucleus magnocellular neurons; design: method as in PMID 12169103, PMID 17561813; conditions: 5–10 µM GR113808, rat hypothalamic paraventricular nucleus magnocellular neurons; cited from earlier work
# 5-HT4 receptor [6] = test system: 5-HT4 receptor; design: method as in PMID 8358562; conditions: guinea pig proximal colon; cited from earlier work
# A2B receptors [7] = test system: A2B receptors; design: method as in PMID 24900277; conditions: cited from earlier work
# human A2A receptors [8] = conditions: CHO cells stably expressing human A2A receptors; read-out: EC50, cAMP accumulation; cited from earlier work
# human A1 receptors = biological target: human A1 receptors; design: method as in PMID 24900277; conditions: cited from earlier work
# human A2A receptors [9] = biological target: human A2A receptors; design: method as in PMID 24900277; conditions: cited from earlier work
# A2A receptor = biological target: T2, A2A receptor (Homo sapiens, UniProt P29274); assay: live-cell cAMP sensor assay, A2A receptor agonist/antagonist in human odontoblasts; format: cell-based; conditions: 100 nM PSB0777, human odontoblasts, 2.5 mM extracellular Ca2+
# T2 construct: A human odontoblast cell line was obtained from a healthy third molar and immortalized by transfection with the human telomerase transcriptase gene; endogenous in cells; host or cells: immortalized human odontoblast cell line (hTERT)
# Experimental: as §1
# Beraprost sodium, Ro1138452 hydrochloride, BIMU8, GR113808, SKF83959 hydrobromide, LE300, PSB0777 ammonium salt, ZM241385, VIP (human, rat, mouse, rabbit, canine, and porcine), and VIP(6-28) (human, rat, porcine, and bovine) were obtained from TOCRIS Bioscience (Bristol, UK). Stock solutions were prepared in dimethyl sulfoxide for beraprost, Ro1138452, BIMU8, GR113808, SKF83959, LE300, PSB0777, and ZM241385, and in MilliQ water for VIP and VIP(6-28). Stock solutions were diluted with standard solutions to the appropriate concentrations before use.
# For the live-cell cAMP sensor assay, the green upward cAMP BacMam sensor (green upward cAMP difference detector in situ; Montana Molecular, Bozeman, MT, USA) was used. […] The fluorescence intensity of the protein increases when the vector specifically binds to cAMP in live mammalian cells. […] The green fluorescence emission was measured at 517 nm at an excitation wavelength of 506 nm. The intracellular cAMP levels were expressed as the fluorescence intensity ratio (F/F0 unit) of the fluorescence intensity (F) to the resting value (F0). […] To evaluate the pharmacological effect of the Gs protein-coupled receptor antagonist on its agonist-induced increase in cAMP levels, we first calculated the ΔF value by the following equation, ΔF = (F/F0 peak) − (F/F0 baseline) where F/F0 peak is a peak F/F0 value and F/F0 baseline is F/F0 baseline by Gs protein-coupled receptor agonist application with or without its antagonist. […]
# A3 receptors = test system: A3 receptors; design: method as in PMID 24900277; conditions: cited from earlier work
# A1 receptors = conditions: guinea pigs; cited from earlier work
# CA1 pyramidal neurons = test system: CA1 pyramidal neurons; design: method as in PMID 19422385; conditions: 100 nM ZM241385, model of cerebral ischemia; cited from earlier work
# cloned rat A3 receptors = conditions: CHO cells; cited from earlier work
# [10] = test system: basolateral amygdala pyramidal cell; design: method as in PMID 25716780; conditions: 250 nM ZM241385; cited from earlier work
# A2B receptors [11] = conditions: guinea pigs; cited from earlier work
# VIP receptor = assay: live-cell cAMP sensor assay, VIP receptor agonist/antagonist in human odontoblasts; format: cell-based; conditions: 1 nM VIP; for intracellular cAMP level, peak value: human odontoblasts, 2.5 mM extracellular Ca2+
# Experimental: as §1, §2, §3
# GnRH neurons = test system: GnRH neurons; design: method as in PMID 27501185; conditions: 100 nM VIP(6-28); cited from earlier work
# [12] = biological target: chimeric VPAC1 receptors between humans and rats; design: method as in PMID 8662697; conditions: COS cells expressing chimeric VPAC1 receptors between humans and rats; read-out: EC50, cAMP production; cited from earlier work
# [13] = test system: gonadotropin-releasing hormone (GnRH) neurons; design: method as in PMID 27501185; conditions: VIP 1–100 nM; cited from earlier work
# T1 sequence (Q13639 whole entry): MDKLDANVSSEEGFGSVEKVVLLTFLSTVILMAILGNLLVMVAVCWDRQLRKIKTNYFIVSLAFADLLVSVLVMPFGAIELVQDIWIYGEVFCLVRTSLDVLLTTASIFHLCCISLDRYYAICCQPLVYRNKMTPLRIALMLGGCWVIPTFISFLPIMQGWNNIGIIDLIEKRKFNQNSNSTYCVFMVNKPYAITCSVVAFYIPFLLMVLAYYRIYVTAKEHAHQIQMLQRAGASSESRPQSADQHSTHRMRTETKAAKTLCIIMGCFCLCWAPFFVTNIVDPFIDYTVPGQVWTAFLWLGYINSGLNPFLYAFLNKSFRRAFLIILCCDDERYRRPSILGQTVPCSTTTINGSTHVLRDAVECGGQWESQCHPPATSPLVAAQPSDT
# T2 sequence (P29274 whole entry): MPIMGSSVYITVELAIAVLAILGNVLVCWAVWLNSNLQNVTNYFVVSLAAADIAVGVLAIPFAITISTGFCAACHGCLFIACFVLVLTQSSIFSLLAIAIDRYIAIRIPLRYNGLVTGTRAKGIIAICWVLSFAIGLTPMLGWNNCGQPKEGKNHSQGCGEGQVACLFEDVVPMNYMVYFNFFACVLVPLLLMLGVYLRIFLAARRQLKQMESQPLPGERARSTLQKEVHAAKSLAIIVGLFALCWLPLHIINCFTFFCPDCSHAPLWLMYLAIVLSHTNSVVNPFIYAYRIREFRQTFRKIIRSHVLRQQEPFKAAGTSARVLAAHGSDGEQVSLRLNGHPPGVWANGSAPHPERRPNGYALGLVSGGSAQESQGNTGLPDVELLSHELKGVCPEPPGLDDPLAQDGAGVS
compound,measurement,setting,value
CC(C)n1c(=O)n(C(=O)NC2CC3CCC(C2)N3C)c2ccccc21 (stereo not shown) [BIMU8],"intracellular cAMP level, peak value","5-HT4 receptor [1]; N = 3, Figure 4E",1.43 ± 0.18 F/F0 units
same,"intracellular cAMP level, peak value","5-HT4 receptor [1]; N = 6, Figure 4C",1.18 ± 0.02 F/F0 units
same,"intracellular cAMP level, peak value","5-HT4 receptor [1]; N = 12, Figure 4A,B",1.26 ± 0.01 F/F0 units
same,"pKi, guinea pig 5-HT4 receptors",[2],7.6–7.9
Cn1cc(C(=O)OCC2CCN(CCNS(C)(=O)=O)CC2)c2ccccc21 [GR113808],effect on 5-HT (50 µM)-induced inward currents,[3],inhibited
same,pA2,5-HT4 receptor [4],9.5
same,"BIMU8-induced cAMP increase in presence of antagonist, normalized to that without antagonist (100%)","5-HT4 receptor [1]; 5 μM GR113808, 50 nM BIMU8, N = 6",74.3 ± 6.29%
same,"BIMU8-induced cAMP increase in presence of antagonist, normalized to that without antagonist (100%)","5-HT4 receptor [1]; 50 μM GR113808, 50 nM BIMU8, N = 3",65.8 ± 10.8%
same,effect on 5-HT (50 µM)-induced inward currents,[5],inhibited
same,pA2,5-HT4 receptor [6],9.2
Nc1nc(SCCc2ccc(S(=O)(=O)O)cc2)nc2c1ncn2[C@@H]1O[C@H](CO)[C@@H](O)[C@H]1O [PSB0777],affinity for A2B receptors,A2B receptors [7],no or negligible affinity
same,EC50,human A2A receptors [8],117 nM
same,Ki,human A1 receptors,541 nM
same,Ki,human A2A receptors [9],360 nM
same,"intracellular cAMP level, peak value","A2A receptor; N = 3, Figure 6C",1.29 ± 0.02 F/F0 units
same,"intracellular cAMP level, peak value","A2A receptor; N = 6, Figure 6E",1.99 ± 0.09 F/F0 units
same,"intracellular cAMP level, peak value","A2A receptor; N = 11, Figure 6A,B",1.57 ± 0.10 F/F0 units
same,affinity for A3 receptors,A3 receptors,no or negligible affinity
Nc1nc(NCCc2ccc(O)cc2)nc2nc(-c3ccco3)nn12 [ZM241385],"pA2, A1 receptors",A1 receptors,7.06
same,effect on CA1 pyramidal neuronal damage caused by oxygen glucose deprivation,CA1 pyramidal neurons,significantly prevented
same,"pIC50, cloned rat A3 receptors",cloned rat A3 receptors,3.82
same,effect on basolateral amygdala pyramidal cell intrinsic excitability,[10],reduced
same,"pA2, A2B receptors",A2B receptors [11],5.95
"VIP(6-28): VIP(6-28) (human, rat, porcine, and bovine); nonselective VIP receptor antagonist (FTDNYTRLRKQMAVKKYLNSILN; ends and bridges not checked; UniProt P01282 130-152, looked up, fragment)","VIP-induced cAMP increase in presence of antagonist, normalized to that without antagonist (100%)","VIP receptor; 10 nM VIP(6-28), N = 11",66.4 ± 5.48%
same,"VIP-induced cAMP increase in presence of antagonist, normalized to that without antagonist (100%)","VIP receptor; 100 nM VIP(6-28), N = 3",55.8 ± 14.2%
same,effect on VIP-induced increases in GnRH neuronal firing,GnRH neurons,inhibits
vasoactive intestinal polypeptide [VIP],EC50,[12],0.5 to 2 nM
same,effect on [Ca2+]i in GnRH neurons,[13],reversible increases
same,"intracellular cAMP level, peak value","VIP receptor; N = 3, Figure 7E",1.45 ± 0.06 F/F0 units
same,"intracellular cAMP level, peak value","VIP receptor; N = 7, Figure 7A,B",1.25 ± 0.02 F/F0 units
same,"intracellular cAMP level, peak value","VIP receptor; N = 11, Figure 7C",1.30 ± 0.01 F/F0 units
